{"source": "paper PMC3598812", "about": "“Evaluation of Anti-Hyperalgesic and Analgesic Effects of Two Benzodiazepines in Human Experimental Pain: A Randomized Placebo-Controlled Study” (PLoS ONE, 2013)", "key": {"healthy male volunteers [1]": {"test_system": "healthy male volunteers", "test": "Cutaneous repeated (20 stimuli) electrical stimulation, VAS", "type": "in vivo, human", "design": "AUC of VAS during 20 cutaneous electrical stimuli: unit not given beside the values", "settings": "mean (SD); for Maximal VAS during 20 cutaneous electrical stimuli: VAS 0-10", "protocol": "The stimulus burst used for single stimulus was repeated for a train of 20 pulses at 2 Hz, at an intensity corresponding to the temporal summation threshold. During this 10 s stimulation, pain intensity was continuously rated by the subject with an electronic VAS, and the area under the curve (AUC) was computed. Additionally, the maximal VAS during stimulation was recorded."}, "patients / volunteers": {"test_system": "patients / volunteers", "settings": "patients treated for panic disorder; ref Micromedex 2009; cited from earlier work"}, "healthy male volunteers [2]": {"test_system": "healthy male volunteers", "test": "Pressure pain detection and tolerance thresholds (pressure algometer, 2nd toe)", "type": "in vivo, human", "settings": "mean (SD)", "protocol": "Pain detection and tolerance thresholds were measured with an electronic pressure algometer (Somedic, Hörby, Sweden) applied at the center of the pulp of the 2nd toe. […] The pressure was increased from 0 at a rate of 30 kPa/s to a maximum pressure of 1200 kPa. Pain detection threshold was defined as the point at which the pressure sensation turned to pain. Pain tolerance threshold was defined as the point at which the subject felt the pain as intolerable. If the threshold was not reached at 1200 kPa, this value was considered as threshold. Three assessments were made and the mean of these 3 measurements were used for the data analysis."}, "healthy male volunteers [3]": {"test_system": "healthy male volunteers", "test": "Area of dynamic mechanical hyperalgesia after intradermal capsaicin (cotton wool stroking)", "type": "in vivo, human", "settings": "single oral dose (clobazam 20 mg, clonazepam 1 mg, tolterodine 1 mg), mean (SD)", "protocol": "The area of dynamic mechanical hyperalgesia was determined by gently stroking a hand-held cotton wool tip on a 1 cm strip of the skin, at a rate of approximately 1 cm/s. Subjects were asked to report when the sensation changed from a non-painful to a painful sensation. The borders of dynamic hyperalgesia were delineated similarly to the determination of static hyperalgesia."}, "healthy male volunteers [4]": {"test_system": "healthy male volunteers", "test": "Cutaneous single electrical stimulation pain threshold", "type": "in vivo, human", "settings": "mean (SD)", "protocol": "(§1) Electrical stimulation was performed through electrodes placed distal to the lateral malleolus. A 25 ms, train-of-five, 1 ms, square-wave impulse (perceived as one stimulus), was delivered by a computer-controlled constant current stimulator (Digitimer DS7A, Neurospec, Letchworth Garden City, UK). The current intensity was increased from 1 mA in steps of 0.5 mA until a pain sensation was evoked.\nThree assessments were made and the mean of these 3 measurements was used for the data analysis."}, "healthy male volunteers [5]": {"test_system": "healthy male volunteers", "test": "Cuff algometry (tourniquet cuff on the leg, VAS-time AUC)", "type": "in vivo, human", "design": "AUC of VAS during cuff algometry: unit not given beside the values", "settings": "for AUC of VAS during cuff algometry: mean (SD)", "excerpt": "A tourniquet cuff was applied to the middle of the leg, at the level of the heads of the gastrocnemius and soleus muscle. The cuff was applied at the side contralateral to the side of electrical stimulation in order not to interfere with the positioning of the intramuscular electrodes. During stimulation, the volunteer rated the pain intensity on an electronic VAS scale. The cuff was inflated with compressed air until VAS 6 was reached. The maximum allowed inflating pressure was 200 kPa. The pressure was maintained for 10 min or until the subjects rated the pain as intolerable. The area under the curve VAS-time was computed. For those subjects who felt intolerable pain before 10 min, the time when the cuff was deflated was recorded and VAS 10 was extrapolated until 10 min. Additionally, the maximal VAS during inflation was recorded."}, "healthy male volunteers [6]": {"test_system": "healthy male volunteers", "test": "Intramuscular single electrical stimulation pain threshold (tibialis anterior)", "type": "in vivo, human", "settings": "for Pain threshold after single intramuscular electrical stimulation: mean (SD)", "protocol": "as §1\nA needle was placed in the tibialis anterior muscle, 14 cm distal from the caudal end of the patella and 20 mm in depth. The same single and repeated stimulation patterns and the same procedure described for cutaneous stimulation were used."}, "healthy male volunteers [7]": {"test_system": "healthy male volunteers", "test": "Conditioned pain modulation (cold pressor test and pressure algometry)", "type": "in vivo, human", "settings": "difference in pressure pain detection threshold after vs before cold pressor test, mean (SD)", "excerpt": "This method explores the endogenous modulation of nociceptive input. Under normal conditions, pain after application of a “test” nociceptive stimulus is attenuated by the application of an additional conditioning noxious stimulus to a remote body region, reflecting diffuse endogenous inhibition, [20]. In the present study, pressure pain detection threshold and cold pressure test (see below) were used as test and conditioning stimuli, respectively. An increase in pressure pain detection threshold immediately after cold pressure test was an indication of CPM.\nThe subjects placed their hand into a container filled with ice water. In order to maximize heterotopic stimulation, the hand contralateral to the side of pressure stimulation was used. The water was regularly mixed to maintain the temperature near to 0°C. The temperature of the water near the hand was monitored by a thermometer with a digital display (±0.1°C). The subjects were asked to keep the hand in the water until they felt an intolerable sensation of pain and were forced to remove the hand from the container, with a maximum time of 2 min.\nPressure pain detection threshold was measured again at the same time as the subject was withdrawing the hand from the water (one single measurement). CPM was measured as the difference in pressure pain detection threshold between measurements after and before the cold pressure test."}, "[8]": {"settings": "baseline before medication, per drug session"}, "[9]": {"settings": "single oral dose (clobazam 20 mg, clonazepam 1 mg, tolterodine 1 mg), 30 min after medication"}, "[10]": {"settings": "single oral dose (clobazam 20 mg, clonazepam 1 mg, tolterodine 1 mg), 60 min after medication"}, "[11]": {"settings": "single oral dose (clobazam 20 mg, clonazepam 1 mg, tolterodine 1 mg), 90 min after medication"}, "[12]": {"settings": "single oral dose (clobazam 20 mg, clonazepam 1 mg, tolterodine 1 mg), 120 min after medication"}, "[13]": {"settings": "single oral dose (clobazam 20 mg, clonazepam 1 mg, tolterodine 1 mg), after flumazenil 0.2 mg iv"}, "[14]": {"settings": "subgroup analysis (n = 8), pairwise multiple comparisons"}}, "note": "Values joined by “and” are separate entries in the source; they are usually repeats but may differ in a detail not shown here. Identical values can stand only once. “Also recorded” adds a separate entry of the source.", "data": [{"smiles": "O=C1CN=C(c2ccccc2Cl)c2cc([N+](=O)[O-])ccc2N1", "note": "[Clonazepam]", "values": [{"measurement": "Maximal VAS during 20 cutaneous electrical stimuli", "setting": "healthy male volunteers [1]; [8]", "result": "4.9 (1.6)"}, {"measurement": "Maximal VAS during 20 cutaneous electrical stimuli", "setting": "healthy male volunteers [1]; [9]", "result": "5.4 (2.0)"}, {"measurement": "Maximal VAS during 20 cutaneous electrical stimuli", "setting": "healthy male volunteers [1]; [10]", "result": "5.0 (2.3)"}, {"measurement": "Maximal VAS during 20 cutaneous electrical stimuli", "setting": "healthy male volunteers [1]; [11]", "result": "4.7 (2.1)"}, {"measurement": "Maximal VAS during 20 cutaneous electrical stimuli", "setting": "healthy male volunteers [1]; [12]", "result": "4.4 (1.6)"}, {"measurement": "Maximal VAS during 20 cutaneous electrical stimuli", "setting": "healthy male volunteers [1]; [13]", "result": "4.2 (1.6)"}, {"measurement": "AUC of VAS during 20 cutaneous electrical stimuli", "setting": "healthy male volunteers [1]; [8]", "result": "359 (144)"}, {"measurement": "AUC of VAS during 20 cutaneous electrical stimuli", "setting": "healthy male volunteers [1]; [9]", "result": "352 (131)"}, {"measurement": "AUC of VAS during 20 cutaneous electrical stimuli", "setting": "healthy male volunteers [1]; [10]", "result": "349 (185)"}, {"measurement": "AUC of VAS during 20 cutaneous electrical stimuli", "setting": "healthy male volunteers [1]; [11]", "result": "351 (141)"}, {"measurement": "AUC of VAS during 20 cutaneous electrical stimuli", "setting": "healthy male volunteers [1]; [12]", "result": "344 (148)"}, {"measurement": "AUC of VAS during 20 cutaneous electrical stimuli", "setting": "healthy male volunteers [1]; [13]", "result": "322 (137)"}, {"measurement": "Dizziness, share of patients", "setting": "patients / volunteers", "result": 8, "unit": "%"}, {"measurement": "Somnolence, share of patients", "setting": "patients / volunteers", "result": "approximately 37%"}, {"measurement": "Pressure pain detection threshold", "setting": "healthy male volunteers [2]; [8]", "result": "416 (80) kPa"}, {"measurement": "Pressure pain tolerance threshold", "setting": "healthy male volunteers [2]; [8]", "result": "685 (172) kPa and 749 (242) kPa"}, {"measurement": "Pressure pain detection threshold", "setting": "healthy male volunteers [2]; [12]", "result": "383 (100) kPa"}, {"measurement": "Pressure pain tolerance threshold", "setting": "healthy male volunteers [2]; [12]", "result": "636 (147) kPa and 712 (262) kPa"}, {"measurement": "Pressure pain detection threshold", "setting": "healthy male volunteers [2]; [13]", "result": "389 (112) kPa"}, {"measurement": "Pressure pain tolerance threshold", "setting": "healthy male volunteers [2]; [13]", "result": "390.8 (199) kPa and 734.7 (279) kPa"}, {"measurement": "Area of dynamic hyperalgesia", "setting": "healthy male volunteers [3]; 30 min after medication", "result": "22.4 (11.2) cm^2"}, {"measurement": "Area of dynamic hyperalgesia", "setting": "healthy male volunteers [3]; 60 min after medication", "result": "19.0 (07.8) cm^2"}, {"measurement": "Area of dynamic hyperalgesia", "setting": "healthy male volunteers [3]; 90 min after medication", "result": "21.7 (12.6) cm^2"}, {"measurement": "Area of dynamic hyperalgesia", "setting": "healthy male volunteers [3]; 120 min after medication", "result": "16.8 (10.8) cm^2"}, {"measurement": "Area of dynamic hyperalgesia", "setting": "healthy male volunteers [3]; after flumazenil 0.2 mg iv", "result": "19.2 (13.1) cm^2"}, {"measurement": "Pain threshold after single cutaneous electrical stimulation", "setting": "healthy male volunteers [4]; [8]", "result": "9.7 (3.3) mA"}, {"measurement": "Pain threshold after single cutaneous electrical stimulation", "setting": "healthy male volunteers [4]; [9]", "result": "9.8 (3.5) mA"}, {"measurement": "Pain threshold after single cutaneous electrical stimulation", "setting": "healthy male volunteers [4]; [10]", "result": "10.3 (3.4) mA"}, {"measurement": "Pain threshold after single cutaneous electrical stimulation", "setting": "healthy male volunteers [4]; [11]", "result": "10.6 (3.6) mA"}, {"measurement": "Pain threshold after single cutaneous electrical stimulation", "setting": "healthy male volunteers [4]; [12]", "result": "11.0 (3.6) mA"}, {"measurement": "Pain threshold after single cutaneous electrical stimulation", "setting": "healthy male volunteers [4]; [13]", "result": "11.2 (3.9) mA"}, {"measurement": "AUC of VAS during cuff algometry", "setting": "healthy male volunteers [5]; [8]", "result": "3420 (689)"}, {"measurement": "Cuff algometry, overview of peak value or subgroup analysis", "setting": "healthy male volunteers [5]; overview table, compared to tolterodine", "result": "Time factor significant, favouring clobazam and clonazepam compared to tolterodine"}, {"measurement": "AUC of VAS during cuff algometry", "setting": "healthy male volunteers [5]; [12]", "result": "3175 (644)"}, {"measurement": "AUC of VAS during cuff algometry", "setting": "healthy male volunteers [5]; [13]", "result": "3225 (671)"}, {"measurement": "AUC of VAS during cuff algometry compared with tolterodine at 120 min", "setting": "healthy male volunteers [5]; [14]", "result": "significantly lower"}, {"measurement": "Change of AUC of VAS during cuff algometry from baseline at 120 min and after flumazenil", "setting": "healthy male volunteers [5]; [14]", "result": "significantly decreased"}, {"measurement": "Pain threshold after single intramuscular electrical stimulation", "setting": "healthy male volunteers [6]; [8]", "result": "1.8 (1.2) mA"}, {"measurement": "Pain threshold after single intramuscular electrical stimulation", "setting": "healthy male volunteers [6]; baseline before medication, per drug session, listed as clonazepam", "result": 1.84, "unit": "mA"}, {"measurement": "Change in pain threshold after single intramuscular electrical stimulation from baseline to after flumazenil", "setting": "healthy male volunteers [6]; main analysis, pairwise comparisons within each drug", "result": "Significant increase in pain thresholds only for clonazepam"}, {"measurement": "Change in pain detection threshold from baseline to peak value, intramuscular single electrical stimulation", "setting": "healthy male volunteers [6]; peak value analysis, pairwise comparisons within each drug", "result": "significantly increase; also recorded: Significant increase in pain thresholds only for clonazepam in the peak value analysis"}, {"measurement": "Pain detection threshold, intramuscular single electrical stimulation", "setting": "healthy male volunteers [6]; peak value analysis, peak value before flumazenil, mean", "result": 11.0}, {"measurement": "Pain threshold after single intramuscular electrical stimulation", "setting": "healthy male volunteers [6]; [12]", "result": "3.0 (2.5) mA"}, {"measurement": "Pain threshold after single intramuscular electrical stimulation", "setting": "healthy male volunteers [6]; [13]", "result": "4.1 (3.7) mA"}, {"measurement": "Pain threshold after single intramuscular electrical stimulation", "setting": "healthy male volunteers [6]; single oral dose (clobazam 20 mg, clonazepam 1 mg, tolterodine 1 mg), after flumazenil 0.2 mg iv, listed as clonazepam", "result": 4.05, "unit": "mA"}, {"measurement": "Conditioned pain modulation", "setting": "healthy male volunteers [7]; [8]", "result": "70 (113) kPa"}, {"measurement": "Conditioned pain modulation", "setting": "healthy male volunteers [7]; [12]", "result": "85 (77) kPa"}, {"measurement": "Conditioned pain modulation", "setting": "healthy male volunteers [7]; [13]", "result": "74 (86) kPa"}]}]}
